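All cell lines were grown in 96-well plates and treated with compound for 48 hours. At the GI50, growth is halved.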 The source made the active and inactive calls. Rule as the data show it: active = GI50 up to about 1.1 µM and inactive = higher.
Columns and labels:
Assay in all cases: NCI anticancer screen, dose series, 48 h
[1] = system: A498
[2] = system: TK-10
[3] = system: SR
[4] = system: HT-29
[5] = system: DLD-1
[6] = system: LXFL 529
[7] = system: NCI-H522
[8] = system: SF-539
[9] = system: M19-MEL
[10] = system: DMS-114
[11] = system: XF498
[12] = system: LOX IMVI
[13] = system: MCF7
[14] = system: 786-0
[15] = system: Hs-578T
[16] = system: T47D
[17] = system: BT-549
[18] = system: MDA-MB-231
[19] = system: DU-145
[20] = system: MDA-N

Measured: GI50

N#C/C(=C1/Sc2c(nc[nH]c2=O)N1c1ccccc1)c1nc2ccccc2[nH]1
inactive: [1] > 100 µM | [2] > 100 µM | [3] > 100 µM | [4] > 100 µM | [5] > 100 µM | [6] > 100 µM | [7] > 100 µM | [8] > 100 µM | [9] > 100 µM | [10] > 100 µM | [11] > 100 µM

C[C@H](O)C(=O)SC[C@H](NC(=O)CC[C@@H](N)C(=O)O)C(=O)NCC(=O)O
inactive: [12] > 100 µM | [2] > 100 µM | [3] > 100 µM | [4] > 100 µM | [5] > 100 µM | [6] > 100 µM | [7] > 100 µM | [9] > 100 µM | [10] > 100 µM

C/C=C/C1=CC(=O)C(O)C1O (stereo not given)
inactive: [1] 8.28 µM | [12] 16.5 µM | [4] 29.6 µM | [13] 30.8 µM | [5] 30.4 µM | [7] 5.86 µM | [8] 23.9 µM | [9] 26.7 µM | [10] 22 µM | [11] 18.5 µM

Cn1cc(NC(=O)[C@H]2CCC(N)=N2)cc1C(=O)NCCC(=N)N
inactive: [12] > 100 µM | [2] > 100 µM | [3] > 100 µM | [4] > 100 µM | [5] > 100 µM | [14] > 100 µM | [6] > 100 µM | [7] > 100 µM | [8] > 100 µM | [10] > 100 µM | [11] > 100 µM

c1ccc2c(c1)CCCC/C2=N/OCC1CO1 (stereo not given)
inactive: [1] > 100 µM | [12] 32.9 µM | [2] > 100 µM | [3] 26.4 µM | [4] 42.1 µM | [5] > 100 µM | [6] 36.3 µM | [8] > 100 µM | [10] 34.8 µM | [11] 29.4 µM

O=C(Nc1c(C(=O)NC2CCCCC2)[nH]c(=O)[nH]c1=O)c1ccc(Cl)cc1
inactive: [12] > 100 µM | [2] > 100 µM | [3] > 100 µM | [4] > 100 µM | [5] > 100 µM | [6] > 100 µM | [7] 44.3 µM | [8] > 100 µM | [9] > 100 µM | [10] > 100 µM | [11] > 100 µM

COc1ccc(C(=O)/C=C/c2ccc(OCC(=O)N3CCN(c4ccccc4)CC3)cc2)cc1
inactive: [1] 55.1 µM | [15] > 40.7 µM | [16] 35.6 µM | [12] > 73.6 µM | [2] 44.7 µM | [3] 18.6 µM | [17] 24.9 µM | [4] > 100 µM | [13] 78.2 µM | [5] > 100 µM | [18] > 27.3 µM | [14] 30.1 µM | [6] > 65.8 µM | [19] > 100 µM | [20] > 100 µM | [7] 17.7 µM | [8] 18.9 µM | [9] > 100 µM | [10] > 90.6 µM | [11] 35.9 µM

C=CC(C)C1(CCCOCc2ccccc2)C(=S)N2CCC3(CC24CCCC14)OCCO3 (stereo not given)
inactive: [1] 5.01 µM | [12] 54.3 µM | [2] 97.3 µM | [4] 21.9 µM | [5] 54.6 µM | [6] 6.1 µM | [7] 7.31 µM | [9] 25.6 µM | [10] 4.97 µM | [11] 3.06 µM

COC(=O)C(C/C=C(\C)c1ccc(Cl)cc1)C(C)=O (stereo not given)
inactive: [1] 34.4 µM | [12] 14.9 µM | [4] 32.3 µM | [13] 37.7 µM | [5] 57.1 µM | [7] 22.5 µM | [8] 99.5 µM | [9] 32.7 µM | [10] 19.9 µM | [11] > 65.8 µM

O=C(NC1C=CCC2C(=O)N(c3ccccc3)C(=O)C12)OCc1ccccc1 (stereo not given)
inactive: [12] > 100 µM | [2] > 100 µM | [3] > 100 µM | [4] > 100 µM | [5] > 100 µM | [14] > 100 µM | [6] > 100 µM | [7] > 100 µM | [8] > 100 µM | [9] > 100 µM | [11] > 100 µM

Cc1cccc(C(C)C)c1NC(=O)/C(Cc1c([N+](=O)[O-])cccc1[N+](=O)[O-])=N/NC(=O)CC#N
inactive: [1] 44.4 µM | [12] > 100 µM | [2] 80.9 µM | [4] > 100 µM | [5] > 100 µM | [14] > 100 µM | [6] > 100 µM | [7] > 100 µM | [8] > 100 µM | [9] > 100 µM | [10] > 100 µM

CCO[C@]12C[C@H](OC)[C@@]3(O)CC(C1[C@H]3O)C13C4C2[C@H](OC)C1[C@](COC)(CN4CC)[C@H](O)C[C@@H]3OC (stereo not given in full)
inactive: [12] > 100 µM | [2] > 100 µM | [3] > 100 µM | [4] > 100 µM | [5] > 100 µM | [6] > 100 µM | [8] > 100 µM | [9] > 100 µM | [10] > 100 µM

Cc1csc(/N=C(/NCCN2CCOCC2)Nc2nc(C)cs2)n1
inactive: [1] > 57.9 µM | [12] > 100 µM | [4] > 100 µM | [13] > 84.5 µM | [5] > 100 µM | [7] > 100 µM | [8] > 100 µM | [9] > 100 µM | [10] > 100 µM | [11] > 100 µM

CCCCCCCSc1nc2c(C(=O)OCC)ncn2c2ccccc12
inactive: [12] > 100 µM | [2] > 100 µM | [3] > 100 µM | [4] > 100 µM | [6] > 100 µM | [9] > 100 µM | [10] > 100 µM | [11] > 100 µM

C=C1[C@@H]2CCC(C)(C)[C@H]1CCC(=O)[C@@H]2C(=O)OC
inactive: [1] > 100 µM | [12] > 100 µM | [2] > 100 µM | [3] > 100 µM | [4] > 100 µM | [14] > 100 µM | [6] > 100 µM | [8] > 100 µM | [9] > 100 µM | [10] > 100 µM | [11] > 100 µM

CC(C)=CC1(C)/C(=N\O)C(C)(CC(C)C)C(=O)N1O (stereo not given)
inactive: [1] > 100 µM | [12] > 100 µM | [2] > 100 µM | [3] > 100 µM | [4] > 100 µM | [5] > 100 µM | [14] > 100 µM | [6] > 100 µM | [7] > 100 µM | [8] > 100 µM | [9] > 100 µM | [10] > 100 µM | [11] 11.3 µM

Reference: ChEMBL document CHEMBL1201862, “PubChem BioAssay data set” (2004)
